Reference: patent US4459417A, “Process for preparing spectinomycin analogs: N-demethylation of spectinomycin or its analogs and realkylation of the intermediates” (The Upjohn Company, priority 1983, dated 1984)
In brackets after ≈: the same amount, converted by molar mass. Where a name gives a salt, the structure may show the parent alone.

How the values were obtained:
Assay in all cases: Minimum inhibitory concentration in vitro
Format in all cases: cell-based
[1] = test system: P. mirabilis UC 6671; details: for MIC: Proteus mirabilis, UC6671
[2] = test system: S. marcescens UC 131; details: for MIC: Serratia marcescens, UC131
[3] = test system: S. faecalis UC 694; details: for MIC: Enterococcus faecalis, UC694
[4] = test system: E. coli UC 45; details: for MIC: Escherichia coli, UC45
[5] = test system: K. pneumoniae UC 58; details: for MIC: Klebsiella pneumoniae, UC58
[6] = test system: S. schottmuelleri UC 126
[7] = test system: S. typhi UC 215; details: for MIC: Salmonella enterica, read-out: Minimum Inhibitory Concentration; for Minimum Inhibitory Concentration: in vitro, S. typhi UC 215
[8] = test system: S. aureus UC 76; details: for MIC: Staphylococcus aureus, UC76
[9] = test system: S. flexneri UC 143; details: Shigella flexneri, UC143
[10] = test system: P. vulgaris UC 93; details: for MIC: Proteus vulgaris, UC93
[11] = test system: Ps. aeruginosa UC 95; details: for MIC: Pseudomonas aeruginosa, UC95
[12] = test system: P. stuartii UC 6570; details: for MIC: Providencia stuartii, UC6570

Row | Compound | MIC [1] | MIC [2] | MIC [3] | MIC [4] | MIC [5] | MIC [6] | MIC [7] | MIC [8] | MIC [9] | MIC [10] | MIC [11] | MIC [12] | Minimum Inhibitory Concentration [1] | Minimum Inhibitory Concentration [2] | Minimum Inhibitory Concentration [3] | Minimum Inhibitory Concentration [5] | Minimum Inhibitory Concentration [7] | Minimum Inhibitory Concentration [8] | Minimum Inhibitory Concentration [10] | also measured
1 | CN[C@@H]1[C@H](O)[C@H](NC)[C@H]2O[C@@]3(O)C(=O)C[C@@H](C)O[C@H]3O[C@@H]2[C@H]1O [Ia, spectinomycin] | 3.9 to 7.8 µg/mL (≈ 11.7 to 23.5 µM) | 3.9 to 7.8 µg/mL (≈ 11.7 to 23.5 µM) | 31.2 to 62.5 µg/mL (≈ 93.9 to 188 µM) | 3.9 to 7.8 µg/mL (≈ 11.7 to 23.5 µM) | 2 to 3.9 µg/mL (≈ 6.02 to 11.7 µM) | 7.8 µg/mL (≈ 23.5 µM) | 3.9 to 7.8 µg/mL (≈ 11.7 to 23.5 µM) | 7.8 µg/mL (≈ 23.5 µM) | 3.9 to 7.8 µg/mL (≈ 11.7 to 23.5 µM) | 7.8 to 15.6 µg/mL (≈ 23.5 to 46.9 µM) | 31.2 µg/mL (≈ 93.9 µM) | 1000 µg/mL (≈ 3010 µM) |  |  |  |  |  |  |  | 
2 | C[C@@H]1CC(=O)[C@]2(O)O[C@@H]3[C@@H](N)[C@@H](O)[C@@H](N)[C@H](O)[C@H]3O[C@@H]2O1 [IIa, N,N'-didemethylspectinomycin dihydrochloride] | 1000 µg/mL | 31.2 µg/mL | > 1000 µg/mL | > 1000 µg/mL | 125 µg/mL |  | > 1000 µg/mL | 250 µg/mL | 250 µg/mL | 125 µg/mL | 250 µg/mL |  |  |  |  |  |  |  |  | 
3 | CCN[C@@H]1[C@H](O)[C@H](NCC)[C@H]2O[C@@]3(O)C(=O)C[C@@H](C)O[C@H]3O[C@@H]2[C@H]1O [IIIa, N,N'-didemethyl-N,N'-diethylspectinomycin dihydrochloride] | 62.5 µg/mL | 62.5 µg/mL | > 1000 µg/mL | 1000 µg/mL | 31.2 µg/mL | > 1000 µg/mL | 1000 µg/mL | 500 µg/mL | 31.2 µg/mL | 125 µg/mL | 1000 µg/mL | > 1000 µg/mL |  |  |  |  |  |  |  | 
4 | Mono-N-demethylspectinomycin dihydrochlorides [IIb] |  |  |  |  |  |  |  |  |  |  |  |  | 15.6 Micrograms/Milliliter | 3.9 Micrograms/Milliliter | 125 Micrograms/Milliliter | 15.6 Micrograms/Milliliter | 62.5 Micrograms/Milliliter | 15.6 Micrograms/Milliliter | 15.6 Micrograms/Milliliter | 
5 | mono-N-demethyl-mono-N-ethylspectinomycin dihydrochloride [IIIb] |  |  |  |  |  |  |  |  |  |  |  |  | 15.6 Micrograms/Milliliter | 7.8 Micrograms/Milliliter | 500 Micrograms/Milliliter | 3.9 Micrograms/Milliliter | 125 Micrograms/Milliliter | 31.2 Micrograms/Milliliter | 7.8 Micrograms/Milliliter | Minimum Inhibitory Concentration [4]: 62.5 Micrograms/Milliliter; Minimum Inhibitory Concentration [11]: 31.2 Micrograms/Milliliter; Minimum Inhibitory Concentration [12]: > 500 Micrograms/Milliliter
